Test results taken from patent US20240033238A1, “COMBINATION OF COMPOUNDS FOR USE IN THERAPY” (B&A ONCOMEDICAL, priority 2022, published 2024).

Experiments:
NKCC1 = molecular target: T1, NKCC1 (Homo sapiens, UniProt P55011); test: dose response on NKCC1-mediated K+ influx (FIG. 1B); format: cell-based; details: HEK293 cells, dose response curves
T1 construct: endogenous in cells; host or cells: HEK293
T1 sequence (P55011 1-1212): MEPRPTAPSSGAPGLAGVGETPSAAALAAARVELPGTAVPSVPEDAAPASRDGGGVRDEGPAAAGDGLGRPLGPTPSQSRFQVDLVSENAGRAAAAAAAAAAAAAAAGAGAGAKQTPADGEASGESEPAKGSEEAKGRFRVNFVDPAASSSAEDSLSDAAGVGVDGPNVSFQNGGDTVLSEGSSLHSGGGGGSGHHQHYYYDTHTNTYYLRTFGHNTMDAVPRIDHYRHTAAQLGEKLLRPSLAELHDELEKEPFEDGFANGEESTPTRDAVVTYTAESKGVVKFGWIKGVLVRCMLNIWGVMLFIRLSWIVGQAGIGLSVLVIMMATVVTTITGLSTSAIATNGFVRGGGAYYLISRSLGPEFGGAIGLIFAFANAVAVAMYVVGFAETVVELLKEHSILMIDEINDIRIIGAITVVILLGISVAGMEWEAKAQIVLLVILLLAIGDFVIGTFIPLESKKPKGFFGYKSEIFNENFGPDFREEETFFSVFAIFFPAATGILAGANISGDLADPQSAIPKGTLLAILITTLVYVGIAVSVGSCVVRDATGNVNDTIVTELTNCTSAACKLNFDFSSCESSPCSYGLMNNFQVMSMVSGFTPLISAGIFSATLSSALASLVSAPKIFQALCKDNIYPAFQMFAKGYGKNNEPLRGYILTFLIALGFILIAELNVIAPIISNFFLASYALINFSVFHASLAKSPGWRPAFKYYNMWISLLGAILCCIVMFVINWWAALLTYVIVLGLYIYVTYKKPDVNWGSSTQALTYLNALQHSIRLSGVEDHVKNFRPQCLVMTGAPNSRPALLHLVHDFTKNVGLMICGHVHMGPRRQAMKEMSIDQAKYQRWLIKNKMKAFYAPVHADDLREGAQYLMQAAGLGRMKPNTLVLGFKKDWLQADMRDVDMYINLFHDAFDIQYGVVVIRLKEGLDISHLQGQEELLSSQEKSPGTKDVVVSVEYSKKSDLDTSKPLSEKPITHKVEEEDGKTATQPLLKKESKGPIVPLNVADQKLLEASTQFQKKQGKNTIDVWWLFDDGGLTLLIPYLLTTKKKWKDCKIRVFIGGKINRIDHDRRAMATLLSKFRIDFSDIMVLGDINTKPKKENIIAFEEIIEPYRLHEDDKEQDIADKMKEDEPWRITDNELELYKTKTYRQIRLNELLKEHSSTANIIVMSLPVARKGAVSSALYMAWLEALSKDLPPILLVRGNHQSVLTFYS

[1] = tested on: K^+ influx in HEK293 cells; test: K+ influx in HEK293 cells (FIG. 1A); format: cell-based, human; details: ouabain 100 uM
U87 cells [2] = test: scratch test (invasion of tumour cells); format: cell-based, human; details: U87, 0.1 μm; for reduction of invasion: day 5, compared to controls not treated; for anti-invasive action (persistence of a trench): day 8
Description: To further investigate invasion of tumour cells, we performed a scratch test. This test enables to visualize the propagation and metastasis of tumour cells determined by their capacity to cross the trench. Therefore, U87 cells are cultivated and a scratch is made with a blade in order to estimate the strength and rapidity of invasion.

U87 cell lines = test: cytotoxicity in GFP transfected U87 cells (cell number); format: cell-based, human; details: for reduction of number of cells: U87, 0.1 μm; for reduction of cell number / cytotoxic effect (in words): U87, 10 μm; for cytotoxic effect (in words): bumetanide at day 3 and day 5
Procedure: The HEK cell line is a specific immortalised cell line widely used in cell biology and biotechnology research and the U87 cell line is a human glioblastoma cell line that is commonly used in brain cancer research.
The effects of bumetanide alone or in combination with mebendazole were investigated in U87 cell lines at 0.1, 1, and 10 μm. Each experiment was performed in triplicate (n=3). Cells were GFP transfected (green). Cytotoxicity is manifested by loss of GFP and presence of small round flat cells loosing GFP expression indicative of cell death (apoptosis).

U87 cells [3] = test: immunochemistry (Dapi, iodure propidium, Actin/GFP) viability of cells; format: cell-based, human; details: U87, 1 μm; control: 3%
Description: The labels used are Dapi (blue) iodure propidium (red) and Actin immunocytochemistry with GFP (green) in order to visualize the viability and non-viability of cells.
To better illustrate the effects of bumetanide and mebendazole, we used Dapi (blue) iodure propidium (red) and Actin immunocytochemistry with GFP (green) in order to visualize the viability and non-viability of cells.

glioblastoma = details: rodent glioblastoma models; shifted from 20 days; cited from earlier work

EC50 (NKCC1) [nM]	EC50 on NKCC1-mediated K+ influx (NKCC1)	Compound	inhibition of K+ influx [1]	reduction of invasion (U87 cells [2]) [%]	anti-invasive action (persistence of a trench) (U87 cells [2])	reduction of number of cells (U87 cell lines; day 3)	reduction of number of cells (U87 cell lines; day 5)	reduction of cell number (U87 cell lines; day 8) [%]	cytotoxic effect (in words) (U87 cell lines)	dead cells / reduction of cell density (U87 cells [3])	mean survival (glioblastoma) [days]	reduction of number of cells (U87 cell lines; day 8) [%]	reduction of cell number (U87 cell lines; day 1) [%]	reduction of cell number (U87 cell lines; day 5) [%]	inhibition at 100 µM ([1]; Homo sapiens) [%]
312		CCCCNc1cc(C(=O)O)cc(S(N)(=O)=O)c1Oc1ccccc1 [bumetanide]	49%	40	neither applications of mebendazole or bumetanide separately produced an anti-invasive action	not	not	18	strong cytotoxic action	3,2%					
	inefficacy	COC(=O)Nc1nc2ccc(C(=O)c3ccccc3)cc2[nH]1 [mebendazole, methyl N-[6-(benzoyl)-1H-benzimidazol-2-yl] carbamate]	ineffective	15	neither applications of mebendazole or bumetanide separately produced an anti-invasive action	43%	90%	64	very strong cytotoxic effect	50%	49	70	55	89	
		CCCSc1ccc2nc(NC(=O)OC)[nH]c2c1 [ABZ, albendazole]									36				
		C[C@@H]1O[C@@H](O[C@H]2C[C@@H](O)[C@]3(CO)[C@H]4[C@H](O)C[C@]5(C)[C@@H](C6=CC(=O)OC6)CC[C@]5(O)[C@@H]4CC[C@]3(O)C2)[C@H](O)[C@H](O)[C@H]1O [ouabain]													44
